pIC50: −log10 of the molar value.

For the experiment, the target named is Human CARM1 (PRMT4) (Homo sapiens (Human), UniProt Q86X55). The experiment in a line: CARM1 enzyme assay on peptide substrate (3H-SAM Flashplate). The note with it: Biochemical potencies, classification codes; read-out: Biochem IC50.
Human CARM1 (PRMT4), sequence (Q86X55 other isoform, or with tags, fused parts or gaps isoform Q86X55-1): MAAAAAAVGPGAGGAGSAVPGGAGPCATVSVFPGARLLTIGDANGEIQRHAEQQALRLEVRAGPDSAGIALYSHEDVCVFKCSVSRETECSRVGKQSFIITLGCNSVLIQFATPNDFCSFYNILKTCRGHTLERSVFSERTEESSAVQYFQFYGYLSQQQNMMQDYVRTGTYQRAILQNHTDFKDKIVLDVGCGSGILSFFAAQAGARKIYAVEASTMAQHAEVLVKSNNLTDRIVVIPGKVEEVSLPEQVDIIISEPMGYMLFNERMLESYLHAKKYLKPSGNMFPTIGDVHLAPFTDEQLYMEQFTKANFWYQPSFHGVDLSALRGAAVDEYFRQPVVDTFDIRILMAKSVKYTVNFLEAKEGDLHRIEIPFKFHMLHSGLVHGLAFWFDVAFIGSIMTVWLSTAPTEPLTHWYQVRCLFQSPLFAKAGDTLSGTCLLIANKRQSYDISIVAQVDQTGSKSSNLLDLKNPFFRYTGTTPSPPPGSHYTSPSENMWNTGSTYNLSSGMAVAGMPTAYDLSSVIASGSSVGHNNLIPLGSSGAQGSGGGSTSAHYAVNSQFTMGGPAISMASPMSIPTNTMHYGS
For the compound `CNCC(O)COc1cccc(-c2nc(N[C@H]3CCOC3)c(C)c(N3CCC(O)CC3)n2)c1` (stereo partly shown) [Example 362-1a], the pIC50 is above 7.00.

As for `CNCC(O)COc1cccc(-c2nc(NC3CCC[C@H]3O)c(C)c(-c3c(C)noc3C)n2)c1` (stereo partly shown) [Example 219-1a], the pIC50 was above 7.00.

Take `CNC[C@@H](O)COc1ccc(Cl)c(-c2nc(-c3c(C)noc3C)c(C)c(N3CCc4ccncc43)n2)c1` [Example 174-3]: the pIC50 was above 7.00.

In the case of `CCOC(=O)N1CCC(CNc2nc(-c3cccc(OCC(O)CNC)c3)nc(-c3c(C)noc3C)c2C)CC1` (stereo not shown) [Example 191-1a], the pIC50 was above 7.00.

Regarding `CNC[C@@H](O)COc1ccc(Cl)c(-c2nc(-c3c(C)noc3C)c(C)c(N3Cc4cn(C(C)C)nc4C3)n2)c1` [Example 272-3], the pIC50 is above 7.00.

As to `CNCC(O)COc1cccc(-c2nc(SC)cc(N(C)C3CCOCC3)n2)c1` (stereo not shown) [Example 573-1a], the pIC50 is above 7.00.

For `CNCC(O)COc1cccc(-c2nc(NC3CCOC3)c(C)c(N3CCN(CC(F)(F)F)CC3)n2)c1` (stereo not shown) [Example 449-1a], the pIC50 was above 7.00.

As for `CNC[C@@H](O)COc1cccc(-c2nc(-c3cnc4cnccn34)cc(N(C)C3CCOCC3)n2)c1` [Example 507-1a], the pIC50 is above 7.00.

For the compound `CNCC(O)COc1cccc(-c2nc(NC(C)C)cc(N(C)C3CCOCC3)n2)c1` (stereo not shown) [Example 22-1], the pIC50 was above 7.00.

`CCS(=O)(=O)N1CCC(CNc2nc(-c3cccc(OCC(O)CNC)c3)nc(-c3c(C)noc3C)c2C)CC1` (stereo not shown) [Example 192-1a]: the pIC50 was above 7.00.

For `CNCC(O)COc1cccc(-c2nc(N[C@@H]3CCOC3=O)c(C)c(-c3c(C)noc3C)n2)c1` (stereo partly shown) [Example 291-1a], the pIC50 was above 7.00.

As for `CNCC(O)COc1cccc(-c2nc(-c3cn(C)c4ncncc34)cc(N(C)C3CCOCC3)n2)c1` (stereo not shown) [Example 485-1a], the pIC50 is above 7.00.

Take `CNCC(O)COc1cccc(-c2nc(N[C@@H]3CCOC3)c(C)c(N3CCS(=O)(=O)CC3)n2)c1` (stereo partly shown) [Example 425-1a]: the pIC50 is above 7.00.

With `CNC[C@@H](O)COc1ccc(F)c(-c2nc(-c3c(C)noc3C)c(Cl)c(N3Cc4nccnc4C3)n2)c1` [Example 295-3], the pIC50 is above 7.00.

`CNC[C@@H](O)COc1ccc(F)c(-c2nc(-c3c(C)noc3C)c(C)c(N3Cc4cc(OC)cnc4C3)n2)c1` [Example 244-3]: the pIC50 is above 7.00.

Take `CNCC(O)COc1cccc(-c2nc(NC3CCCN(CC(F)F)C3)c(C)c(-c3c(C)noc3C)n2)c1` (stereo not shown) [Example 203-1a]: the pIC50 is above 7.00.

With `CCOC(=O)N1CCC(Nc2nc(-c3cccc(OCC(O)CNC)c3)nc(-c3c(C)noc3C)c2C)CC1` (stereo not shown) [Example 189-1a], the pIC50 is above 7.00.

As for `CNCC(O)COc1cccc(-c2nc(N[C@H]3C[C@@H](O)C3)c(C)c(-c3c(C)noc3C)n2)c1` (stereo partly shown) [Example 256-1a], the pIC50 is above 7.00.

As for `CNCC(O)COc1cccc(-c2nc(N[C@@H]3CCOC3)c(C)c(N3CCOCC3)n2)c1` (stereo partly shown) [Example 3-1], the pIC50 is above 7.00.

In the case of `CNC[C@@H](O)COc1ccc(Cl)c(-c2nc(-c3c(C)noc3C)c(C)c(N3Cc4cn[nH]c4C3)n2)c1` [Example 231-3], the pIC50 was above 7.00.

As for `CCS(=O)(=O)N1CCOC[C@@H]1CNc1nc(-c2cccc(OCC(O)CNC)c2)nc(-c2c(C)noc2C)c1C` (stereo partly shown) [Example 230-1a], the pIC50 was above 7.00.

With `CNC[C@@H](O)COc1ccc(Cl)c(-c2nc(-c3c(C)noc3C)c(C)c(N3CC4(CCOC4)C3)n2)c1` [Example 120-3], the pIC50 is above 7.00.

For the compound `CNCC(O)COc1cccc(-c2nc(NC3CCOCC3)cc(-c3ccc(OC)c(OC)c3)n2)c1` (stereo not shown) [Example 658-1a], the negative-log IC50 (pIC50) is above 7.00.

Take `CNCC(O)COc1cccc(-c2nc(-c3c(C)noc3C)cc(N3CCN(C(=O)N(C)C)[C@@H](C)C3)n2)c1` (stereo partly shown) [Example 91-1a]: the pIC50 was above 7.00.

Turning to `CNCC(O)COc1cccc(-c2nc(N[C@H]3CC[C@H](OC)C3)c(C)c(-c3c(C)noc3C)n2)c1` (stereo partly shown) [Example 234-1a], the pIC50 was above 7.00.

Take `CNC[C@@H](O)COc1ccc(Cl)c(-c2nc(-c3c(C)noc3C)cc(N3CC4(CCOCC4)C3)n2)c1` [Example 249-3]: the pIC50 is above 7.00.

Regarding `CNC[C@@H](O)COc1ccc(Cl)c(-c2nc(NC[C@H]3CCCO3)c(C)c(-c3c(C)noc3C)n2)c1` [Example 130-3], the pIC50 was above 7.00.

Turning to `CNCC(O)COc1cccc(-c2nc(-c3cccnc3)cc(N(C)C3CCOCC3)n2)c1` (stereo not shown) [Example 32-1], the pIC50 was above 7.00.

For the compound `CNCC(O)COc1cccc(-c2nc(N(C)C3CCOCC3)cc(-n3cccn3)n2)c1` (stereo not shown) [Example 542-1a], the pIC50 is above 7.00.

Consider `CNCC(O)COc1cccc(-c2nc(-c3c(C)noc3C)cc(N3CCNC(C(=O)O)C3)n2)c1` (stereo not shown) [Example 29-1a], for which the pIC50 is above 7.00.

On to `CNCC(O)COc1cccc(-c2nc(N[C@@H]3CCOC3)c(C)c(N3CCN(C4CC4)CC3)n2)c1` (stereo partly shown) [Example 436-1a], for which the negative-log IC50 (pIC50) is above 7.00.

In the case of `CNCC(O)COc1cccc(-c2nc(N[C@@H]3CCOC3)c(C)c(-c3ccc(OC)nc3)n2)c1` (stereo partly shown) [Example 408-1a], the pIC50 is above 7.00.

Regarding `CNCC(O)COc1cccc(-c2nc(Nc3nncs3)c(C)c(-c3c(C)noc3C)n2)c1` (stereo not shown) [Example 215-1a], the pIC50 is above 7.00.

For `CNCC(O)COc1cccc(-c2nc(-c3c(C)noc3C)cc(N(C)C3CCOCC3)n2)c1` (stereo not shown) [Example 1-1a], the pIC50 is above 7.00.

For the compound `CNCC(O)COc1cccc(-c2nc(NCCCN3CCCC3=O)cc(-c3ccc(C(F)(F)F)nc3)n2)c1` (stereo not shown) [Example 71-1], the pIC50 was above 7.00.

With `CNCC(O)COc1cccc(-c2nc(NC3CCOCC3)cc(-c3cc4ccccc4o3)n2)c1` (stereo not shown) [Example 46-1], the pIC50 was above 7.00.

For the compound `CNCC(O)COc1cccc(-c2nc(N[C@@H]3CCN(C4CC4)C[C@@H]3F)c(C)c(-c3c(C)noc3C)n2)c1` (stereo partly shown) [Example 260-1a], the pIC50 is above 7.00.

Consider `CNC[C@@H](O)COc1ccc(Cl)c(-c2nc(N[C@@H]3CCO[C@@H](C)C3)c(C)c(-c3c(C)noc3C)n2)c1` [Example 257-3], for which the pIC50 was above 7.00.

`CNCC(O)COc1cccc(-c2nc(-c3cnc4ccnn4c3)cc(N(C)C3CCOCC3)n2)c1` (stereo not shown) [Example 564-1a]: the pIC50 was above 7.00.

For the compound `CNCC(O)COc1cccc(-c2nc(NC3CCN(C4COC4)C3)c(C)c(-c3c(C)noc3C)n2)c1` (stereo not shown) [Example 240-1a], the pIC50 was above 7.00.

Regarding `CNCC(O)COc1cccc(-c2nc(N[C@H]3CCOC3)c(C)c(N3CCOCC3)n2)c1` (stereo partly shown) [Example 26-1], the pIC50 was above 7.00.

For the compound `CNCC(O)COc1cccc(-c2nc(NC(C)C3CCOCC3)c(C)c(-c3c(C)noc3C)n2)c1` (stereo not shown) [Example 157-1a], the pIC50 was above 7.00.

Take `CNCC(O)COc1cccc(-c2nc(N[C@@H]3CCC[C@@H]3O)c(C)c(-c3c(C)noc3C)n2)c1` (stereo partly shown) [Example 250-1a]: the pIC50 was above 7.00.

Take `CNCC(O)COc1cccc(-c2nc(-c3c(C)noc3C)c(C)c(N3CCC[C@H](N(C)C(=O)OC)C3)n2)c1` (stereo partly shown) [Example 15-3]: the pIC50 was above 7.00.

Consider `CCS(=O)(=O)N1CCCC(Nc2nc(-c3cccc(OCC(O)CNC)c3)nc(-c3c(C)noc3C)c2C)C1` (stereo not shown) [Example 204-1a], for which the pIC50 is above 7.00.

On to `CNC[C@H](O)COc1ccc(Cl)c(-c2nc(N[C@H]3C[C@H](OC)C3)c(C)c(-c3c(C)noc3C)n2)c1` [Example 53-3], for which the pIC50 was above 7.00.

In the case of `CNCC(O)COc1cccc(-c2nc(-c3c(C)noc3C)cc(N(C)c3cnc(C)nc3)n2)c1` (stereo not shown) [Example 61-1a], the pIC50 was above 7.00.

In the case of `CNCC(O)COc1cccc(-c2nc(NCCCN3CCCC3=O)cc(-c3ccnc(OC)c3)n2)c1` (stereo not shown) [Example 60-1], the pIC50 was above 7.00.

In the case of `CNC[C@@H](O)COc1ccc(Cl)c(-c2nc(N[C@@H]3CCOC3)c(C)c(-c3c(C)noc3C)n2)c1` [Example 100-3], the pIC50 was above 7.00.

Turning to `CCN(CC)c1nc(-c2cccc(OCC(O)CNC)c2)nc(N2CCOCC2)c1C` (stereo not shown) [Example 682-1a], the pIC50 is above 7.00.

Turning to `CNCC(O)COc1cccc(-c2nc(N[C@@H]3CCOC3)c(C)c(N3CCC[C@@H](O)C3)n2)c1` (stereo partly shown) [Example 358-1a], the pIC50 is above 7.00.

As to `CNC[C@@H](O)COc1ccc(Cl)c(-c2nc(N[C@H]3C[C@@H](OC)C3)c(Cl)c(-c3c(C)noc3C)n2)c1` [Example 216-3], the pIC50 was above 7.00.

Regarding `CNCC(O)COc1cccc(-c2nc(N(C)C3CCOCC3)cc(-n3nc(C)cc3C)n2)c1` (stereo not shown) [Example 568-1a], the pIC50 is above 7.00.

Regarding `CNCC(O)COc1cccc(-c2nc(N[C@H]3CCOC3=O)c(C)c(-c3c(C)noc3C)n2)c1` (stereo partly shown) [Example 281-1a], the pIC50 is above 7.00.

In the case of `CCO[C@@H]1CCC[C@H]1Nc1nc(-c2cc(OC[C@H](O)CNC)ccc2Cl)nc(-c2c(C)noc2C)c1C` [Example 240-3], the pIC50 was above 7.00.

As for `CNCC(O)COc1cc(Cl)cc(-c2nc(-c3cnc4ccccn34)c(C)c(N(C)C3CCOCC3)n2)c1` (stereo not shown) [Example 561-1a], the negative logarithm of the IC50 (pIC50) is above 7.00.

As to `CNC[C@@H](O)COc1ccc(Cl)c(-c2nc(NC3CCN(C(=O)OC)CC3)c(C)c(-c3c(C)noc3C)n2)c1` [Example 104-3], the negative-log IC50 (pIC50) is above 7.00.

With `CNCC(O)COc1cccc(-c2nc(N[C@@H]3CCOC3)c(C)c(N3Cc4nc(C)sc4C3)n2)c1` (stereo partly shown) [Example 465-1a], the negative logarithm of the IC50 (pIC50) was above 7.00.

With `CNCC(O)COc1cccc(-c2nc(Nc3cc(C)on3)c(C)c(-c3c(C)noc3C)n2)c1` (stereo not shown) [Example 233-1a], the pIC50 is above 7.00.

Consider `CNCC(O)COc1cccc(-c2nc(-c3c(C)noc3C)cc(N3CC[C@H](S(C)(=O)=O)C3)n2)c1` (stereo partly shown) [Example 69-1a], for which the pIC50 was above 7.00.

As for `CNCC(O)COc1cccc(-c2nc(NC[C@@H]3CN(C(=O)OC)CCO3)c(C)c(-c3c(C)noc3C)n2)c1` (stereo partly shown) [Example 306-1a], the pIC50 is above 7.00.

For the compound `CNCC(O)COc1cccc(-c2nc(-c3c(C)noc3C)c(C)c(N3CC[C@H](C(=O)N(C)C)C3)n2)c1` (stereo partly shown) [Example 162-1a], the pIC50 was above 7.00.

With `CNC[C@H](O)COc1ccc(Cl)c(-c2nc(-c3c(C)noc3C)c(C)c(N3Cc4cccnc4C3)n2)c1` [Example 92-3], the pIC50 is above 7.00.

Turning to `CNC[C@@H](O)COc1ccc(Cl)c(-c2nc(N[C@H]3CO[C@@H](C)C3)c(Cl)c(-c3c(C)noc3C)n2)c1` [Example 148-3], the pIC50 was above 7.00.

The values are drawn from patent publication US20230279020A9, “CARM1 INHIBITORS AND USES THEREOF” (Epizyme, Inc., priority 2013, published 2023).
